Measurements: ChEMBL document CHEMBL3045921, “Synthesis and Acaricidal Activity of Pyrazole-5-carboxamide Derivatives” (1991)
In brackets after ≈: the same amount, converted by molar mass.

Legend:
Type in all cases: functional
[1] = system: Panonychus citri; test: Ovicidal activity against Panonychus citri in mandarin orange leaf assessed as egg mortality at 25 degC measured after 7 days; conditions: 168 h
[2] = system: Tetranychus urticae; test: Ovicidal activity against Tetranychus urticae (two-spotted spider mite) in kidney bean leaf assessed as egg mortality at 25 degC measured after 7 days; conditions: 168 h
[3] = system: Panonychus citri; test: Adulticidal activity against Panonychus citri in mandarin orange leaf assessed as mortality at 25 degC measured after 2 days; conditions: 48 h
[4] = system: Tetranychus urticae; test: Adulticidal activity against Tetranychus urticae (two-spotted spider mite) in kidney bean leaf assessed as mortality at 25 degC measured after 2 days; conditions: 48 h
[5] = system: Tetranychus urticae; test: Acaricidal activity against Tetranychus urticae (two-spotted spider mite) in kidney bean leaf assessed as mortality at 200 ppm at 25 degC measured after 5 days; conditions: 120 h
[6] = system: Tetranychus urticae; test: Acaricidal activity against Tetranychus urticae (two-spotted spider mite) in kidney bean leaf assessed as mortality at 500 ppm at 25 degC measured after 5 days; conditions: 120 h
[7] = system: Tetranychus urticae; test: Acaricidal activity against Tetranychus urticae (two-spotted spider mite) in kidney bean leaf assessed as mortality at 50 ppm at 25 degC measured after 5 days; conditions: 120 h
[8] = system: Tetranychus urticae; test: Acaricidal activity against Tetranychus urticae (two-spotted spider mite) in kidney bean leaf assessed as mortality at 12.5 ppm at 25 degC measured after 5 days; conditions: 120 h
[9] = system: Tetranychus urticae; test: Acaricidal activity against Tetranychus urticae (two-spotted spider mite) in kidney bean leaf assessed as mortality at 3.1 ppm at 25 degC measured after 5 days; conditions: 120 h

| Structure (SMILES) | LC50 [1] [mg/L] | LC50 [2] [mg/L] | LC50 [3] [mg/L] | LC50 [4] [mg/L] | mortality at 200 ppm [5] [%] | mortality at 500 ppm [6] [%] | mortality at 50 ppm [7] [%] | mortality at 12.5 ppm [8] [%] | mortality at 3.1 ppm [9] [%] |
| --- | --- | --- | --- | --- | --- | --- | --- | --- | --- |
| CCc1nn(C)c(C(=O)NCc2ccc(C(C)(C)C)cc2)c1Br | 10 (≈ 26.4 µM) | 1.4 (≈ 3.7 µM) | 0.59 (≈ 1.56 µM) | 7.1 (≈ 18.8 µM) | – | – | – | – | – |
| CCc1nn(C)c(C(=O)NCc2ccc(C3CC3)cc2)c1Cl | – | – | – | – | 0 | 30 | 0 | 0 | 0 |
| Cc1nn(C)c(C(=O)NCc2ccc(C(C)(C)C)cc2)c1C | 36 (≈ 120 µM) | 8.8 (≈ 29.4 µM) | 6.1 (≈ 20.4 µM) | 7.5 (≈ 25 µM) | 100 | 100 | 100 | 100 | 0 |
| Cc1nn(C)c(C(=O)NCc2ccc(C(C)(C)C)cc2)c1C#N | – | – | – | – | 0 | 0 | 0 | 0 | 0 |
| Cc1nn(C)c(C(=O)NCc2ccc(C(C)(C)C)cc2)c1[N+](=O)[O-] | – | – | – | – | 0 | 0 | 0 | 0 | 0 |
| Cc1nn(C)c(C(=O)NCc2ccc(C(C)(C)C)cc2)c1N | – | – | – | – | 0 | 0 | 0 | 0 | 0 |
| CC(=O)Nc1c(C)nn(C)c1C(=O)NCc1ccc(C(C)(C)C)cc1 | – | – | – | – | 0 | 0 | 0 | 0 | 0 |
| Cn1nc(C2CC2)c(Cl)c1C(=O)NCc1ccc(C(C)(C)C)cc1 | – | – | – | – | 0 | 30 | 0 | 0 | 0 |
| CCCCc1nn(C)c(C(=O)NCc2ccc(C(C)(C)C)cc2)c1Cl | – | – | – | – | 0 | 0 | 0 | 0 | 0 |
| CC(C)Cc1nn(C)c(C(=O)NCc2ccc(C(C)(C)C)cc2)c1Cl | – | – | – | – | 0 | 0 | 0 | 0 | 0 |
| Cn1nc(-c2ccccc2)c(Cl)c1C(=O)NCc1ccc(C(C)(C)C)cc1 | – | – | – | – | 0 | 0 | 0 | 0 | 0 |
| CCc1nn(C)c(C(=O)NCc2ccccc2)c1Cl | – | – | – | – | 0 | 0 | 0 | 0 | 0 |
| CCc1nn(C)c(C(=O)NCc2ccc(C)cc2)c1Cl | – | – | – | – | 0 | 0 | 0 | 0 | 0 |
| CCc1ccc(CNC(=O)c2c(Cl)c(CC)nn2C)cc1 | – | – | – | – | 0 | 30 | 0 | 0 | 0 |
| Cc1nn(C)c(C(=O)NCc2ccc(C(C)(C)C)cc2)c1Br | 17 (≈ 46.7 µM) | 3 (≈ 8.24 µM) | 4 (≈ 11 µM) | 9.8 (≈ 26.9 µM) | 100 | 100 | 100 | 30 | 0 |
| Cc1nn(C)c(C(=O)NCc2ccc(C(C)(C)C)cc2)c1Cl | 9.9 (≈ 31 µM) | 2.4 (≈ 7.5 µM) | 3.1 (≈ 9.69 µM) | 7.7 (≈ 24.1 µM) | 100 | 100 | 100 | 100 | 30 |
| CCc1nn(C)c(C(=O)NCc2ccc(C(C)(C)C)cc2)c1Cl [TEBUFENPYRAD] | 3.9 (≈ 11.7 µM) | 0.96 (≈ 2.88 µM) | 0.5 (≈ 1.5 µM) | 3.7 (≈ 11.1 µM) | 100 | 100 | 100 | 100 | 100 |
